Source: patent US8343959B2, “N-phenyl-(piperazinyl or homopiperazinyl)-benzenesulfonamide or benzenesulfonyl-phenyl-(piperazine or homopiperazine) compounds suitable for treating disorders that respond to modulation of the serotonin 5-HT6 receptor” (Abbott GmbH & Co. KG, priority 2009, dated 2013)
Structures can show the parent of a compound that is named as a salt.

biological target: T1, h-5-HT6 receptor (Homo sapiens, UniProt P50406); experiment: 5-HT6 receptor binding assay (displacement of [3H]-LSD); conditions: not given
T1 construct: expressed in transfected cells
Description: Displacement of Radioligands Binding to The Following Cloned Human Receptors
Cells from stable clonal cell lines expressing the corresponding receptor (5-HT6, α1-adrenergic, dopamine D2 or histamine H1 receptors) were washed with PBS (w/o Ca^++, Mg^++) and harvested in PBS with 0.02% EDTA. The cells were collected by centrifugation at 500 g for 10 min. at 4° C., washed with PBS and centrifuged (500 g, 10 min. 4° C.). The pellets were stored at −80° C. until use. For membrane preparation, the thawed cell pellet was resuspended in ice-cold sucrose buffer (0.25 M sucrose, 10 mM Hepes (pH 7.4), 1 mM Phenylmethylsulfonyl fluoride (PMSF) in DMSO, 5 μg/ml Pepstatin-A, 3 mM EDTA, 0.025% Bacitracin) and homogenized with a Branson Sonifier W-250 (Settings: Timer 4; Output Control 3; Duty Cycle constant; 2 to 3 cycles). Cell disruption was checked with the aid of a microscope. Remaining unbroken cells were pelleted at 1.000 g for 10 min. at 4° C. The sucrose buffer supernatant was then centrifuged at 60.000 g for 1 h at 4° C. (Beckman Ultrazentrifuge XL 80). The pellet was resuspended in 30 ml ice-cold Tris buffer (20 mM TRIS (pH 7.4), 5 μg/ml Pepstatin A, 0.1 mM PMSF, 3 mM EDTA) by pipetting through a 10 ml serological pipet and centrifuged for 1 h at 4° C. at 60.000 g. A final resuspension was performed in a small volume of ice-cold Tris buffer (see above) by pressing through a serological pipet followed by ultrasonic treatment with a Branson Sonifier W-250 (Settings: Timer 1; Output Control 3; Duty Cycle constant; 1 cycle). Protein concentration was determined (BCA-Kit; Pierce) and aliquots stored at −80° C. or in liquid nitrogen for long-term storage.
All receptor binding experiments were carried out in the corresponding assay buffer in a total volume of 200 μl in the presence of various concentrations of test compound (10^−5 M to 10^−9 M, tenfold serial dilution, duplicate determinations). The assays were terminated by filtration on polyethylenimine (PEI 0.1% or 0.3%) presoaked Packard Unifilter Plates (GF/C or GF/B) with a Tomtec Machin U 96 well-plate harvester. After the plates had been dried for 2 h at 55° C. in a drying chamber scintillation cocktail (BetaPlate Scint; PerkinElmer) was added. Radioactivity was measured in a Microbeta Trilux two hours after the addition of the scintillation mixture. Data derived from liquid scintillation counting were analysed by iterative non-linear regression analysis with the use of the Statistical Analysis System (SAS): a program similar to “LIGAND” as described by Munson and Rodbard (Analytical Biochemistry 107, 220-239 (1980).
HEK293 cells stably expressing the h-5-HT6 receptor (NCBI Reference Sequence XM 001435) were cultured in RPMI1640 medium supplemented with 25 mM HEPES, 10% fetal calf serum and 1-2 mM glutamine. The membrane preparation was performed as described in section 1. […] Non-specific binding was defined with 1 μM methiothepin. The binding reaction was carried out for 3.5 h at room temperature. During the incubation, the plates were shaken on a plate shaker at 100 rpm and terminated by filtration on Packard Unifilter GF/C (0.1% PEI) plates, followed by 2 wash cycles with ice-cold 50 mM Tris-HCl, 5 mM CaCl2.
Data derived from liquid scintillation counting were analyzed by iterative non-linear regression analysis with the use of the Statistical Analysis System (SAS): a program similar to “LIGAND” as described by Munson and Rodbard (Anal. Biochem. 1980, 107, 220-239). Fitting was performed according to formulae described by Feldman (Anal. Biochem. 1972, 48, 317-338). IC50, nH and Ki values were expressed as geometrical mean.

T1 sequence (P50406 whole entry): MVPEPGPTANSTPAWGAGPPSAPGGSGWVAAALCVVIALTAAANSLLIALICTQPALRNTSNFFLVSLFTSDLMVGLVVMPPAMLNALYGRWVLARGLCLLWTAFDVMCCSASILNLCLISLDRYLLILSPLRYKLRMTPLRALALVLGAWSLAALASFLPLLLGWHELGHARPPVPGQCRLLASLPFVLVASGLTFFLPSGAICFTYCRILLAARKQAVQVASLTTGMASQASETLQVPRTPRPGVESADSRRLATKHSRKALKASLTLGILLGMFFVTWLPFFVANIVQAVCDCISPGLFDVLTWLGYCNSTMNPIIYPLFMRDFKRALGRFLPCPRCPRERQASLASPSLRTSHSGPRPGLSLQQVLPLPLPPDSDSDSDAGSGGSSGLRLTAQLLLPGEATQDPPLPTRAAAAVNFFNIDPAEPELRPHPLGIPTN

`Cc1ccc(S(=O)(=O)Nc2ccccc2OC(F)F)cc1N1CCNCC1` [Example 17, N-(2-Difluoromethoxy-phenyl)-4-methyl-3-piperazin-1-yl-benzenesulfonamide hydrochloride] and `Cc1ccc(S(=O)(=O)Nc2ccc(OC(F)F)cc2)cc1N1CCNCC1` [Example 7, N-(4-Difluoromethoxy-phenyl)-4-methyl-3-piperazin-1-yl-benzenesulfonamide hydrochloride] cannot be ordered by Ki: under 10 nM for the first, under 50 nM for the second.

same assay, conditions: membranes of HEK293 cells expressing h-5-HT6 receptor, 1 nM [3H]-LSD; read-out: Ki (5HT6)

`CN1CCN(c2cccc(S(=O)(=O)Nc3ccccc3OC(F)F)c2)CC1` [Example 42, N-(2-Difluoromethoxy-phenyl)-3-(4-methyl-piperazin-1-yl)-benzenesulfonamide hydrochloride] and `Cc1ccc(S(=O)(=O)Nc2ccccc2OC(F)F)cc1N1CCN(C)CC1` [Example 5, N-(2-Difluoromethoxy-phenyl)-4-methyl-3-(4-methyl-piperazin-1-yl)-benzenesulfonamide hydrochloride] cannot be ordered by Ki: under 10 nM for the first, under 50 nM for the second.

`Cc1ccc(OC(F)F)cc1NS(=O)(=O)c1ccc(C)c(N2CCNCC2)c1` [Example 58, N-(5-Difluoromethoxy-2-methyl-phenyl)-4-methyl-3-piperazin-1-yl-benzenesulfonamide hydrochloride] and `COc1ccc(OC(F)F)cc1NS(=O)(=O)c1ccc(C)c(N2CCNCC2)c1` [Example 80, N-(5-Difluoromethoxy-2-methoxy-phenyl)-4-methyl-3-piperazin-1-yl-benzenesulfonamide trifluoroacetate] cannot be ordered by Ki: under 10 nM for the first, under 50 nM for the second.

`COc1ccc(N(C)S(=O)(=O)c2ccc(OC)c(N3CCNCC3)c2)cc1OC(F)F` [Example 28, N-(3-Difluoromethoxy-4-methoxy-phenyl)-4-methoxy-N-methyl-3-piperazin-1-yl-benzenesulfonamide hydrochloride] and `COc1ccc(NS(=O)(=O)c2ccc(OC)c(N3CCNCC3)c2)cc1OC(F)F` [Example 25, N-(3-Difluoromethoxy-4-methoxy-phenyl)-4-methoxy-3-piperazin-1-yl-benzenesulfonamide hydrochloride] cannot be ordered by Ki: under 50 nM for the first, under 10 nM for the second.

`COc1ccc(S(=O)(=O)Nc2cc(Cl)ccc2OC(F)F)cc1N1CCNCC1` [Example 57, N-(5-Chloro-2-difluoromethoxy-phenyl)-4-methoxy-3-piperazin-1-yl-benzenesulfonamide hydrochloride] and `Cc1ccc(S(=O)(=O)Nc2cc(Cl)ccc2OC(F)F)cc1N1CCNCC1` [Example 71, N-(5-Chloro-2-difluoromethoxy-phenyl)-4-methyl-3-piperazin-1-yl-benzenesulfonamide hydrochloride] cannot be ordered by Ki: under 10 nM for the first, under 10 nM for the second.

`Cc1ccc(S(=O)(=O)Nc2cccc3c2OC(F)(F)O3)cc1N1CCNCC1` [Example 8, N-(2,2-Difluoro-benzo[1,3]dioxol-4-yl)-4-methyl-3-piperazin-1-yl-benzenesulfonamide hydrochloride] and `COc1ccc(S(=O)(=O)Nc2cccc3c2OC(F)(F)O3)cc1N1CCNCC1` [Example 40, N-(2,2-Difluoro-benzo[1,3]dioxol-4-yl)-4-methoxy-3-piperazin-1-yl-benzenesulfonamide hydrochloride] cannot be ordered by Ki: under 500 nM for the first, under 50 nM for the second.

`COc1ccc(S(=O)(=O)Nc2ccc(OC(F)F)c(OC(F)F)c2)cc1N1CCN(C)CC1` [Example 51, N-(3,4-Bis-difluoromethoxy-phenyl)-4-methoxy-3-(4-methyl-piperazin-1-yl)-benzenesulfonamide hydrochloride] and `COc1cc(NS(=O)(=O)c2ccc(OC)c(N3CCN(C)CC3)c2)ccc1OC(F)F` [Example 90, N-(4-Difluoromethoxy-3-methoxy-phenyl)-4-methoxy-3-(4-methyl-piperazin-1-yl)-benzenesulfonamide] cannot be ordered by Ki: under 10 nM for the first, under 50 nM for the second.

`Cc1ccc(S(=O)(=O)Nc2ccc3c(c2)OC(F)(F)O3)cc1N1CCNCC1` [Example 84, N-(2,2-Difluoro-benzo[1,3]dioxol-5-yl)-4-methyl-3-piperazin-1-yl-benzenesulfonamide hydrochloride] and `Cc1ccc(NS(=O)(=O)c2ccc(C)c(N3CCNCC3)c2)cc1OC(F)F` [Example 6, N-(3-Difluoromethoxy-4-methyl-phenyl)-4-methyl-3-piperazin-1-yl-benzene-sulfonamide hydrochloride] cannot be ordered by Ki: under 50 nM for the first, under 50 nM for the second.

`COc1ccc(S(=O)(=O)c2cccc(OC(F)F)c2)cc1N1CCN(C)CC1` [Example 48, 1-[5-(3-Difluoromethoxy-benzenesulfonyl)-2-methoxy-phenyl]-4-methyl-piperazine hydrochloride] and `COc1ccc(OC(F)F)cc1NS(=O)(=O)c1ccc(C)c(N2CCN(C)CC2)c1` [Example 77, N-(5-Difluoromethoxy-2-methoxy-phenyl)-4-methyl-3-(4-methyl-piperazin-1-yl)-benzenesulfonamide trifluoroacetate] cannot be ordered by Ki: under 10 nM for the first, under 50 nM for the second.

`COc1ccc(OC(F)F)c(NS(=O)(=O)c2ccc(C)c(N3CCN(C)CC3)c2)c1` [Example 78, N-(2-Difluoromethoxy-5-methoxy-phenyl)-4-methyl-3-(4-methyl-piperazin-1-yl)-benzenesulfonamide trifluoroacetate] and `COc1ccc(OC(F)F)c(NS(=O)(=O)c2ccc(C)c(N3CCNCC3)c2)c1` [Example 81, N-(2-Difluoromethoxy-5-methoxy-phenyl)-4-methyl-3-piperazin-1-yl-benzenesulfonamide hydrochloride] cannot be ordered by Ki: under 50 nM for the first, under 50 nM for the second.

`Cc1ccc(S(=O)(=O)N(C)c2ccccc2OC(F)F)cc1N1CCNCC1` [Example 16, N-(2-Difluoromethoxy-phenyl)-N-methyl-4-methyl-3-piperazin-1-yl-benzene sulfonamide hydrochloride] and `COc1ccc(S(=O)(=O)N(C)c2cccc(OC(F)F)c2)cc1N1CCNCC1` [Example 32, N-(3-Difluoromethoxy-phenyl)-4-methoxy-N-methyl-3-piperazin-1-yl-benzenesulfonamide hydrochloride] cannot be ordered by Ki: under 500 nM for the first, under 10 nM for the second.

`CCN(c1cccc(OC(F)F)c1)S(=O)(=O)c1ccc(OC)c(N2CCNCC2)c1` [Example 29, N-(3-Difluoromethoxy-phenyl)-N-ethyl-4-methoxy-3-piperazin-1-yl-benzenesulfonamide hydrochloride] and `COc1ccc(S(=O)(=O)Nc2cc(OC(F)F)ccc2C)cc1N1CCNCC1` [Example 59, N-(5-Difluoromethoxy-2-methyl-phenyl)-4-methoxy-3-piperazin-1-yl-benzenesulfonamide hydrochloride] cannot be ordered by Ki: under 10 nM for the first, under 10 nM for the second.

`O=S(=O)(Nc1ccccc1OC(F)F)c1cccc(N2CCNCC2)c1` [Example 41, N-(2-Difluoromethoxy-phenyl)-3-piperazin-1-yl-benzenesulfonamide hydrochloride] and `COc1ccc(S(=O)(=O)Nc2ccccc2OC(F)F)cc1N1CCNCC1` [Example 26, N-(2-Difluoromethoxy-phenyl)-4-methoxy-3-piperazin-1-yl-benzenesulfonamide hydrochloride] cannot be ordered by Ki: under 10 nM for the first, under 10 nM for the second.

`Cc1cc(NS(=O)(=O)c2ccc(C)c(N3CCN(C)CC3)c2)ccc1OC(F)F` [Example 87, N-(4-Difluoromethoxy-3-methyl-phenyl)-4-methyl-3-(4-methyl-piperazin-1-yl)-benzenesulfonamide hydrochloride] and `Cc1ccc(S(=O)(=O)Nc2ccc(OC(F)F)cc2)cc1N1CCN(C)CC1` [Example 88, N-(4-Difluoromethoxy-phenyl)-4-methyl-3-(4-methyl-piperazin-1-yl)-benzenesulfonamide hydrochloride] cannot be ordered by Ki: under 50 nM for the first, under 500 nM for the second.

With `COc1cc(NS(=O)(=O)c2ccc(C)c(N3CCNCC3)c2)ccc1OC(F)F` [Example 76, N-(4-Difluoromethoxy-3-methoxy-phenyl)-4-methyl-3-piperazin-1-yl-benzenesulfonamide] the Ki was under 50 nM.
